Experimental data: ChEMBL document CHEMBL1150150, “New dammarane and malabaricane triterpenes from Caloncoba echinata” (J Nat Prod, 2002)

How the values were obtained:
[1] = Effect on human erythrocyte morphology assessed as transformation of erythrocytes to stomatocytes after 48 hrs by Giemsa staining; format: ADME, cell-based
[2] = Toxicity in human erythrocyte assessed as lysis at 25 to 100 ug/mL after 48 hrs by Giemsa staining; format: cell-based
[3] = Effect on human erythrocyte morphology assessed as transformation of erythrocytes to spherostomatocytes at 25 to 100 ug/mL after 48 hrs by Giemsa staining; format: ADME, cell-based
[4] = Effect on human erythrocyte morphology assessed as transformation of erythrocytes to stomatocytes S2 type at 25 to 100 ug/mL after 48 hrs by Giemsa staining; format: ADME, cell-based
[5] = Effect on human erythrocyte morphology assessed as transformation of erythrocytes to stomatocytes S1 type at 25 to 100 ug/mL after 48 hrs by Giemsa staining; format: ADME, cell-based
[6] = Effect on human erythrocyte morphology assessed as ghost cell formation at 50 to 100 ug/mL after 48 hrs by Giemsa staining; format: ADME, cell-based
[7] = Effect on human erythrocyte morphology assessed as transformation of erythrocytes to stomatocytes S1 type at 12.5 ug/mL after 48 hrs by Giemsa staining; format: ADME, cell-based
[8] = Effect on morphology of human erythrocytes assessed as occurrence of normal discocytes at 6.25 ug/mL after 48 hrs by Giemsa staining; format: ADME, cell-based; details: erythrocyte
[9] = Effect on morphology of human erythrocytes assessed as transformation of erythrocytes to stomatocytes S1 type at 6.25 ug/mL after 48 hrs by Giemsa staining; format: ADME, cell-based; details: erythrocyte
[10] = Toxicity in human erythrocytes assessed as transformation of erythrocytes to stomatocytes at 0.625 after 48 hrs by Giemsa staining; format: cell-based; details: erythrocyte
Plasmodium falciparum = experiment: Antiplasmodial activity against chloroquine-sensitive Plasmodium falciparum 3D7 after 48 hrs by [3H]phenylalanine uptake
[11] = Toxicity in human erythrocytes assessed as lysis at 12.5 ug/mL after 48 hrs by Giemsa staining; format: cell-based; details: erythrocyte
[12] = Effect on morphology of human erythrocytes assessed as transformation of erythrocytes to stomatocytes S2 type at 6.25 ug/mL after 48 hrs by Giemsa staining; format: ADME, cell-based; details: erythrocyte

C=C(CC[C@H](O)[C@@]1(C)CC[C@H](C(C)(C)O)O1)[C@H]1CC[C@H]2[C@@]1(C)CC[C@H]1C(C)(C)C(=O)CC[C@]21C
Activity [1]: Toxic
Activity [2]: Toxic
Activity [3]: Toxic
Activity [4]: Toxic
Activity [5]: Toxic
Activity [6]: Toxic
Activity [7]: Toxic
Activity [8]: Non-toxic
Activity [9]: Toxic
Activity [10]: Non-toxic
IC50 (Plasmodium falciparum): < 12 µg/mL

C=C(CC[C@@H](O)[C@]1(C)CC[C@H](C(C)(C)O)O1)[C@H]1CC[C@H]2[C@@]1(C)CC[C@H]1C(C)(C)C(=O)CC[C@]21C
Activity [1]: Toxic
Activity [2]: Toxic
Activity [3]: Toxic
Activity [4]: Toxic
Activity [5]: Toxic
Activity [6]: Toxic
Activity [7]: Toxic
Activity [8]: Non-toxic
Activity [9]: Toxic
Activity [10]: Non-toxic
IC50 (Plasmodium falciparum): < 12 µg/mL

CC(C)=CCC[C@@](C)(O)[C@H]1CC[C@]2(C)[C@@H]1C[C@@H](O)[C@@H]1[C@@]3(C)CCC(=O)C(C)(C)[C@@H]3CC[C@]12C
Activity [1]: Toxic
Activity [2]: Toxic
Activity [3]: Toxic
Activity [4]: Toxic
Activity [5]: Toxic
Activity [6]: Toxic
Activity [11]: Non-toxic
Activity [7]: Toxic
Activity [8]: Non-toxic
Activity [12]: Toxic
Activity [9]: Toxic
Activity [10]: Non-toxic
IC50 (Plasmodium falciparum): < 12 µg/mL
